Assay results published in patent US20080261978A1, “Chemokine receptor modulators” (priority 2007, published 2008).

Assays:
[1] = cited from earlier work
T-tropic HIV = experiment: Phenoscreen HIV cellular entry inhibition assay (Monogram Biosciences); conditions: Human immunodeficiency virus 1, read-out: IC50 value for viral entry inhibition

For c1cc(CN2CCCNCCNCCCNCC2)ccc1CN1CCCNCCNCCCNCC1 [AMD3100], the “side effect in clinical study” value [1] is listed as “cardiac-related side effect”.
In the case of O=S(=O)(NC1CCCc2ccccc21)c1ccc(CNCc2ccccn2)cc1 (centres unmarked) [DE, 4-((pyridin-2-ylmethylamino)methyl)-N-(1,2,3,4-tetrahydronaphthalen-1-yl)benzenesulfonamide], the IC50 (T-tropic HIV) is reported as ≤ 10 µM.
For O=S(=O)(c1ccc(CNCc2ccccn2)cc1)N(Cc1ccccc1)Cc1nc2ccccc2[nH]1 [DH, N-((1H-benzo[d]imidazol-2-yl)methyl)-N-benzyl-4-((pyridin-2-ylmethylamino)methyl)benzenesulfonamide], the IC50 (T-tropic HIV) was ≤ 10 µM.
With O=S(=O)(c1ccc(CNCCCN2CCOCC2)cc1)N(Cc1ccccc1)Cc1ccccc1 [DX, N,N-dibenzyl-4-((3-morpholinopropylamino)methyl)benzenesulfonamide] the IC50 (T-tropic HIV) was ≤ 10 µM.
For CCNCc1ccc(S(=O)(=O)N(Cc2ccccc2)Cc2ccccc2)cc1 [DZ, N,N-dibenzyl-4-((ethylamino)methyl)benzenesulfonamide], the IC50 (T-tropic HIV) was ≤ 10 µM.
